US12268665B2, “Combination of immunotherapies with MDM2 inhibitors” (ASCENTAGE PHARMA (SUZHOU) CO., LTD., priority 2018, dated 2025)

Columns and labels:
[1] = system: CD4+ T cells isolated from mouse spleens; test: Activation of CD4+ T cells by APG-115 (flow cytometry); format: cell-based
Method: Effector T cells play a critical role in antitumor immunity. To investigate whether APG-115 influenced T cell function, CD4^+ T cells isolated from mouse spleens were exposed to APG-115 or solvent control DMSO.
Specifically, CD4^+ T cells were positively selected from mouse spleens using magnetic beads and stimulated with 5 μg/ml plate-bound anti-CD3 and 2 μg/ml anti-CD28 in the presence of APG-115 (250 nM) or DMSO for 24 h (Day 1) or 48 h (Day 2). The percentages of CD25-expressing and CD62L-expressing populations (top panel), and FSC (lower panel) were determined by flow cytometry.

[2] = system: MH-22A murine hepatoma syngeneic model; test: In vivo efficacy study in MH-22A model; set-up: species or system mouse; settings: for RTV (Mean ± SEM) d15 / T/C (%) d15: anti-PD-1 10 mg/kg i.p. biw; for Response rate (%) d15: anti-PD-1 10 mg/kg, n=10
Method: Tumor volumes were measured twice weekly in two dimensions using a caliper, and the volume was expressed in mm^3 using the formula: Tumor Volume(mm^3)=0.5a×b^2 where a and b are the long and short diameters of the tumor, respectively.
Relative tumor volume (RTV) was calculated using the following formula: RTV=Vt/V1 Where V1 and Vt are the average tumor volumes on the first day of treatment (day 1) and the average tumor volumes on a certain time point (day t).
Synergy score was calculated using the following formula (Clarke R, Breast Cancer Research & Treatment, 1997, 46(2-3):255-278): Synergy score=((A/C)×(B/C))/(AB/C); A: response to treatment A; B: response to treatment B; C: response to vehicle control; AB: combination of treatment A and B.
Standard NCI procedures were used to calculate tumor parameters. Percent tumor growth inhibition (% T/C) was calculated as the mean RTV of treated tumors (T) divided by the mean RTV of control tumors (C)×100%. The percentage T/C value is an indication of antitumor effectiveness: a value of T/C<42% is considered significant antitumor activity by the NCI. A T/C value <10% is considered to indicate highly significant antitumor activity, and is the level used by the NCI to justify a clinical trial if toxicity and certain other requirements are met (termed DN-2 level activity). A body weight loss nadir (mean of group) of greater than 20%, or greater than 20% of drug deaths are considered to indicate an excessively toxic dosage.
(§1) Each mouse was inoculated subcutaneously at the right flank region with MH-22A tumor cells (5×10^6) in 0.2 mL of PBS for tumor development. The treatments were initiated when the mean tumor size reached ˜65 mm^3. The test articles were administered to the tumor-bearing mice according to the regimen shown in the experimental design Table 3. The day of start dosing was defined as d1.

[3] = system: Trp53 mutant MC38 syngeneic murine colon tumor; test: In vivo efficacy study in MC38 model; set-up: species or system mouse; settings: for T/C (%) d17 / RTV (Mean ± SEM) d17: anti-PD-1 5 mg/kg i.p. biw; for RTV (Mean ± SEM) d17: C57BL/6 mice
Method: as §1, with “with MC38” for “with MH-22A”, “cells (5×10^5)” for “cells (5×10^6)”, “in 0.1” for “in 0.2”, “reached ˜63” for “reached ˜65”, “Table 10.” for “Table 3.”
Efficacy of combination treatment with APG-115 plus anti-PD-1 antibody was further evaluated in a Trp53 mutant MC38 syngeneic mouse tumor model on a C57BL/6 background.

[4] = clinical; set-up: species or system human; settings: in vivo
Method: Patients with advanced soft tissue sarcoma (STS), adenoid cystic carcinoma (ACC) or other solid tumors in China (CTR20170975) were treated with APG-115. In dose escalation, patients received APG-115 (100-200 mg) orally QOD for first 21 days of a 28-day cycle, until disease progression. Study objectives include safety (primary endpoint), pharmacokinetics (PK), pharmacodynamics (PD), and antitumor activity assessed every 8 weeks.
This is a Phase I study (CTR20170975) is designed to assess the safety, dose-limiting toxicities (DLT), the maximum tolerated dose (MTD)/recommended phase 2 dose (RP2D), pharmacokinetics (PK), pharmacodynamics (PD) profile and anti-tumor activity of orally administered APG-115 in Chinese patients with advanced soft tissue sarcoma and other solid tumors.

[5] = Phase I study APG-115-US-001 (NCT02935907): safety; format: in vivo
Method: (§2) This Phase I study (APG-115-US-001) was designed to assess safety, toxicity, pharmacokinetics (PK), pharmacodynamics (PD), and antitumor activity of APG-115 orally in patients with advanced solid tumors in US (NCT02935907).
For Safety study of APG-115, the safety evaluation included vital signs, electrocardiogram (ECG) parameters, Easter Cooperative Oncology Group (ECOG) performance status data, clinical laboratory tests and adverse event data. Safety assessments were performed in each treatment cycle.
Single dose escalation study was conducted. A standard “3+3” design was employed to determine the maximum tolerated dose (MTD) of APG-115 by assessing the dose limiting toxicity (DLT) of APG-115. […] of APG-115 was tested: 10, 20, 50, 100, 200, and 300 mg. APG-115 was administrated orally every other day (QOD) for a consecutive 3 weeks (i.e. dosed at Day 1, 3, 5, 7, 9, 11, 13, 15, 17, 19, and 21), with one week dosing off as 4-weeks a cycle. […] The scheme of the trial design is provided below.

[6] = system: serum MIC-1 (PD marker of TP53 activation); test: Phase I study APG-115-US-001: pharmacodynamics; format: in vivo, human; settings: within the dose range tested
Text: as §2

[7] = system: serum MIC-1; test: Phase Ib/II study with pembrolizumab: pharmacodynamics; format: in vivo, human; settings: after APG-115 treatment, preliminary
Method: In the dose escalation study, APG-115 is combined with pembrolizumab of for the treatment of patients with metastatic solid tumor. Four dose levels of APG-115 are tested: 50, 100, 150, and 200 mg. APG-115 is administrated orally every other day (QOD) for consecutive 2 weeks of a 21-day-cycle. Pembrolizumab is administrated at 200 mg IV on day 1 of a 21-day-cycle. The primary objectives of the dose escalation study is to determine safety, tolerability, and determination of MTD and RP2D; other anti-tumor assessments (assessed per RECIST v1.1 every 6 weeks) are the secondary objectives.

[8] = 250 nM, anti-CD3/anti-CD28 stimulated, 24 h or 48 h
[9] = APG-115 10 mg/kg p.o. qd, epacadostat 100 mg/kg p.o. bid

For `CCN1[C@@H](C(=O)NC23CCC(C(=O)O)(CC2)CC3)[C@H](c2cccc(Cl)c2F)[C@]2(C(=O)Nc3cc(Cl)ccc32)C12CCCCC2` [APG-115], the “caspase 3 cleavage in T cells” value ([1]; 250 nM of APG-115) was “not detected”, the “CD25^highCD62L^low cell populations” value [1, 8] was “rapid increase” and the “cell size of stimulated CD4+ T cells (FSC)” value [1, 8] was “increase in cell size”. The “RTV (Mean ± SEM) d15” value [2, 9] was 37.8 ± 6.8, the “T/C (%) d15” value [2, 9] was 98% and the “Response rate (%) d15” value ([2]; APG-115 10 mg/kg, epacadostat 100 mg/kg) was 0%. For the same molecule, the “RTV (Mean ± SEM) d15” value ([2]; APG-115 50 mg/kg p.o. qd) was 36.2 ± 8.7, the “T/C (%) d15” value ([2]; APG-115 50 mg/kg p.o. qd) was 94% and the “Response rate (%) d15” value ([2]; APG-115 50 mg/kg) was 0%. The “antitumor activity as single agents” value ([2]; APG-115 10 and 50 mg/kg, epacadostat 100 mg/kg) was “did not exert antitumor activity”, the “T/C (%) d17” value ([3]; APG-115 10 mg/kg p.o. q2d) was 73% and the “RTV (Mean ± SEM) d17” value ([3]; APG-115 10 mg/kg p.o. q2d) was 15.3 ± 2.7. The “T/C (%) d17” value ([3]; APG-115 50 mg/kg p.o. q2d) was 94%, the “RTV (Mean ± SEM) d17” value ([3]; APG-115 50 mg/kg p.o. q2d) was 19.8 ± 2.2 and the “antitumor activity as single agent” value ([3]; APG-115 10 and 50 mg/kg) was “minimal antitumor activity”. For the same molecule, the Tmax ([4]; human) was 4 to 6 h, the “AUC and Cmax versus dose” value [4] was “generally increase dose proportionally” and the “Cmax and AUC0-t versus dose” value ([4]; po) was “approximately dose proportional increase”. The “MTD/RP2D of APG-115 monotherapy” value ([5]; QOD 3 weeks on, 1 week off) was 100 mg, the “pts discontinued treatment: Adverse Event” value ([5]; human, in vivo) was 3 and the “DLTs observed during cycle 1” value ([5]; in vivo) was “Four”. For the same molecule, the “events determined as DLTs” value ([5]; in vivo) was “Platelet count decreased, fatigue, and nausea”, the “patients with Absolute neutrophil count decreased (less than 1.00×10^3/uL) after C2D21” value ([5]; in vivo) was “three patients” and the “Serum MIC-1 increase” value [6] was “exposure dependent”. For the same molecule, the “serum MIC-1 levels” value [7] was “elevated”.
